{"source": "patent US8852876B2", "about": "“Label free biosensors and cells” (Corning Incorporated, priority 2008, dated 2014)", "key": {"[1]": {"test_system": "endogenous GPCRs in A431 cells", "test": "DMR optical biosensor profiling of GPCR agonists", "type": "cell-based, human", "details": "quiescent A431; first class = Gq-type, second = Gs-type, third = Gi-type, fourth = no significant DMR"}, "[2]": {"molecular_target": "T1, protease activated receptors PAR1 and PAR2 (Homo sapiens, UniProt P25116)", "T1 construct": "A431 cells which endogenously express PAR1 and PAR2; endogenous in cells; host or cells: A431", "T1 sequence (P25116 22-425)": "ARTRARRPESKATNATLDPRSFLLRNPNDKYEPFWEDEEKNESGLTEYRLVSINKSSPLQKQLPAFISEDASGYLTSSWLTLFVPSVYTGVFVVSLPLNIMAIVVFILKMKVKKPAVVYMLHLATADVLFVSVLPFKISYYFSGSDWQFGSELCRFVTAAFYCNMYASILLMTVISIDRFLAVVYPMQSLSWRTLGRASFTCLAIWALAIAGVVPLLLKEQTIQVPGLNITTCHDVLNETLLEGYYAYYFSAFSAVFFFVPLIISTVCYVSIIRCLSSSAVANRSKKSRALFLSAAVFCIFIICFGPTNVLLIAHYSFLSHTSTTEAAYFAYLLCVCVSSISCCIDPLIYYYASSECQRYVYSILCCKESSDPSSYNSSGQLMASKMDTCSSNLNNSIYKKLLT", "type": "cell-based", "details": "quiescent A431; n=3", "summary_of_the_method": "(§1)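 A431 cells at passage 3-5 grown in DMEM/10% FBS at 37° C, 5% CO2 to ~95% confluency (~2-4 days). Compounds and PAR agonists prepared in 1×HBSS to match the refractive index of the cell medium for dynamic mass redistribution (DMR) read-out.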"}, "[3]": {"test_system": "protease activated receptors PAR1 and PAR2", "type": "cell-based, human", "details": "interval about 1 hour", "summary_of_the_method": "as §1"}, "[4]": {"test_system": "protease activated receptors PAR1 and PAR2", "test": "Fluo-3 Ca2+ mobilization assay with PAR agonists", "type": "cell-based, human", "summary_of_the_method": "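A431 cells (passage 3–5), serum-starved overnight, loaded with 4 μM Fluo-3 for 1 h in HBSS/20 mM HEPES pH 7.0 with 2.5 mM probenecid. PAR agonist added and calcium fluorescence recorded over 6 min at 6 s intervals, room temperature.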"}, "[5]": {"test_system": "actin filaments in A431 cells", "test": "Texas Red-phalloidin fluorescence imaging", "type": "cell-based, human", "details": "100 nM trypsin or 40 unit/ml thrombin; ~95% confluency", "description": "Cells were grown on Corning® Epic™ 96 well biosensor microplates, starved for overnight with serum-free DMEM medium, chased with either trypsin or thrombin for certain time, fixed with 4% paraformaldehyde, permeabilized in phosphate-buffered saline (PBS) containing 0.2% Triton, and blocked with 1% bovine serum albumin (BSA). Afterwards, cells were incubated with 0.5 μM Texas Red-labeled phalloidin for 1 h at room temperature, and washed. After final washes and mounting, cells were examined with a 40× objective, equipped in a Zeiss Axioplan fluorescence microscope."}, "PAR1 receptor": {"molecular_target": "T2, PAR1 receptor (Cricetulus griseus, UniProt A0A8C2QJ57)", "T2 construct": "The PAR1 receptor is endogenously expressed in CHO cells; endogenous in cells; host or cells: CHO", "T2 sequence (A0A8C2QJ57 22-428)": "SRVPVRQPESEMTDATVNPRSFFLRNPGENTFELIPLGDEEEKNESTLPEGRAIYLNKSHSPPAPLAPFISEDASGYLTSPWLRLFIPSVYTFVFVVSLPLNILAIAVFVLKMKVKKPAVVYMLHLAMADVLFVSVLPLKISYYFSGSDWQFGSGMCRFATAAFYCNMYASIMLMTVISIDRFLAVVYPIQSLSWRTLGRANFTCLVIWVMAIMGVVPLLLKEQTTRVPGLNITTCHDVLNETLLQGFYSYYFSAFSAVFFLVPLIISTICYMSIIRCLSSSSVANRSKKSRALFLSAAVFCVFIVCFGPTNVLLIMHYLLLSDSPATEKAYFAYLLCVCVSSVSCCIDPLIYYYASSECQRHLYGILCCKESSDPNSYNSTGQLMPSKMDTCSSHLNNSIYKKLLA", "test": "Endpoint wavelength-shift measurement, 384 well biosensor plate", "type": "cell-based, Chinese hamster", "details": "CHO cells; 5 minutes after addition", "description": "The two time points were right before the compound addition (the baseline point), and 5 minutes after the compound addition (the measured point). The difference between two endpoints reflects the total amplitude of the P-DMR event mediated by thrombin—a PAR1 receptor agonist. Here a different cell line—CHO cells was used. The PAR1 receptor is endogenously expressed in CHO cells. The cells become partially quiescent by culturing the cells in the DMEM medium for 4 hours before the thrombin stimulation. In this example, a 384 well Coring Epic biosensor plate was used. Each well contains CHO cells with a confluency of ˜90%. Half of the wells were treated with thrombin at 40 unit/ml, whereas other half of the wells were treated with the buffer HBSS only. Since the agonist-induced activation of both B2 in A431 and PAR1 in CHO cells leads to Gq signaling, the significance of this assay results is that the Gq-type optical signature is at least universal in both cell lines. By using similar endpoint measurements, one is able to screen GPCR modulators against different endogenous targets in different cells.\nThe two time points were right before the compound addition (the baseline point), and 5 minutes after the compound addition (the measured point). The CHO cells were treated with thrombin at different doses. […]"}}}
{"substance": "thrombin", "values": [{"measurement": "Class of optical signature (DMR) induced by agonist", "setting": "[1]", "result": "first class of optical signatures"}, {"measurement": "Apparent EC50 (P-DMR amplitude, Gq-type)", "setting": "[2]", "result": "9.6±2.0", "unit": "unit/ml"}, {"measurement": "Effect of preceding stimulation on trypsin-induced DMR signal", "setting": "[3]", "result": "significantly suppresses but not completely eliminates the trypsin-induced DMR signal"}, {"measurement": "Effect of preceding stimulation on thrombin-mediated [Ca2+]i elevation", "setting": "[4]; 40 unit/ml thrombin twice", "result": "totally blocked the [Ca^2+]i elevation mediated by 40 unit/ml thrombin"}, {"measurement": "Concentration required to induce a maximal response", "setting": "[4]; [Ca2+]i", "result": 40, "unit": "unit/ml"}, {"measurement": "Effect of preceding stimulation on trypsin-induced [Ca2+]i elevation", "setting": "[4]; interval 6 min, 200 nM trypsin", "result": "slightly suppressed the trypsin-induced [Ca^2+]i elevation"}, {"measurement": "EC50 of [Ca2+]i increase", "setting": "[4]; quiescent A431, Fluo-3", "result": "6±1", "unit": "unit/ml"}, {"measurement": "Maximal [Ca2+]i elevation", "setting": "[4]; quiescent A431, Fluo-3", "result": "48.2±3.5", "unit": "%"}, {"measurement": "EC50", "setting": "[4]; quiescent A431, Fluo-3, converted from unit/ml, read-out: EC50 of [Ca2+]i increase, equivalent", "result": "60 ± 10", "unit": "nM"}, {"measurement": "Reorganization of actin filaments", "setting": "[5]", "result": "triggered significant cytoskeletal reorganization after about 10 min"}, {"measurement": "Apparent EC50 (endpoint wavelength shift)", "setting": "PAR1 receptor", "result": 12.5, "unit": "unit/ml"}]}
